Experiments:
soybean [1] = assay: Test Example 1: foliage treatment, upland pot test; format: in vivo, Glycine max Merr.; settings: crop, active ingredient 1000 g/ha, observed 18th to 23rd day, 0 = non-treated, 100 = complete kill
Summary of the method: (§1)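 Applied as a post-emergence foliar spray: formulated compound diluted to 500 L/ha with spreader at 0.1% (v/v). Treatment timing—rice at 1.2–2.6, wheat at 1.3–2.4, barnyardgrass at 1.3–2.8, soybean at 0.1–0.4 leaf stage. Scored visually on a 0–100% control scale after 18–23 days.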

crabgrass [2] = assay: Test Example 2: soil surface treatment, upland pot test; format: in vivo, Digitaria sanguinalis L.; settings: active ingredient 1000 g/ha, observed 20th to 28th day
Summary of the method: (§2)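 Pre-emergence soil-surface spray, 1 d after sowing; 1/170,000 ha pots, upland soil; WP or EC formulation, set a.i. rate, 1,500 L/ha water; visual growth-control score 0–100% at days 20–28 post-treatment.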

tall morningglory = assay: Test Example 1: foliage treatment, upland pot test; format: in vivo, Ipomoea purpurea L.; settings: active ingredient 1000 g/ha, observed 18th to 23rd day, 0 = non-treated, 100 = complete kill
Text: Upland field soil was put into a 1/170,000 ha pot, and seed of various plants were sown. Then, when the plants reached predetermined leaf stages ((1) barnyardgrass: 1.3 to 2.8 leaf stages, (2) crabgrass: 1.0 to 2.8 leaf stages, (3) green foxtail: 1.3 to 2.6 leaf stages, (4) redroot pigweed: 0.1 to 1.2 leaf stages, (5) prickly sida: 0.1 to 1.2 leaf stages, (6) velvetleaf: 0.1 to 1.2 leaf stages, (7) tall morningglory: 0.1 to 1.5 leaf stages, (8) rice: 1.2 to 2.6 leaf stages, (9) wheat: 1.3 to 2.4 leaf stages, (10) corn, 2.1 to 3.2 leaf stages, (11) soybean: 0.1 to 0.4 leaf stage), a wettable powder or emulsifiable concentrate having the compound of the present invention formulated in accordance with a usual formulation method, was weighed so that the active ingredient would be a predetermined amount, and diluted with water in an amount of 500 L/ha. To the diluted solution, 0.1% (v/v) of agricultural spreader was added. The herbicide thus adjusted was applied by a small size sprayer for foliage treatment. On the 18th to 23rd days after the application of the herbicide, the growth of the respective plants was visually observed, and the herbicidal effects were evaluated by the growth controlling degrees (%) ranging from 0 (equivalent to the non-treated plot) to 100 (complete kill), whereby the results shown in Table 3, were obtained.

prickly sida [3] = assay: Test Example 2: soil surface treatment, upland pot test; format: in vivo, Sida spinosa L.; settings: active ingredient 1000 g/ha, observed 20th to 28th day
Summary of the method: as §2

velvetleaf [4] = assay: as above; format: in vivo, Abutilon theophrasti MEDIC.; settings: active ingredient 1000 g/ha, observed 20th to 28th day
Summary of the method: as §2

barnyardgrass [5] = assay: as above; format: in vivo, Echinochloa crus-galli L.; settings: active ingredient 1000 g/ha, observed 20th to 28th day, 0 = non-treated, 100 = complete kill
Summary of the method: as §2

green foxtail [6] = assay: Test Example 1: foliage treatment, upland pot test; format: in vivo, Setaria viridis L.; settings: active ingredient 1000 g/ha, observed 18th to 23rd day, 0 = non-treated, 100 = complete kill
redroot pigweed [7] = assay: Test Example 2: soil surface treatment, upland pot test; format: in vivo, Amaranthus retroflexus L.; settings: active ingredient 1000 g/ha, observed 20th to 28th day
Summary of the method: as §2

corn [8] = assay: as above; format: in vivo, Zea mays L.; settings: active ingredient 1000 g/ha, observed 20th to 28th day
Summary of the method: as §2

barnyardgrass [9] = assay: Test Example 3: paddy pot test, application under submerged conditions; format: in vivo, Echinochloa crus-galli L.; settings: active ingredient 500 g/ha; submerged application at 0.5 leaf stage; visually observed 14 days after application; 0 = non-treated, 100 = complete kill
Summary of the method: (§3)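 After sowing seeds and planting wapato tubers in flooded paddy soil, an aqueous dilution of the formulated compound was added to the 3–4 cm flood water at early leaf stage. Percent growth control relative to the untreated plot was assessed visually on day 14.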

wheat [10] = assay: Test Example 1: foliage treatment, upland pot test; format: in vivo, Triticum spp.; settings: crop, active ingredient 1000 g/ha, observed 18th to 23rd day, 0 = non-treated, 100 = complete kill
Summary of the method: as §1

barnyardgrass [11] = assay: Test Example 1: foliage treatment, upland pot test; format: in vivo, Echinochloa crus-galli L.; settings: active ingredient 1000 g/ha, observed 18th to 23rd day, 0 = non-treated, 100 = complete kill
Summary of the method: as §1

rice [12] = assay: Test Example 2: soil surface treatment, upland pot test; format: in vivo, Oryza sativa L.; settings: active ingredient 1000 g/ha, observed 20th to 28th day
Summary of the method: as §2

rice [13] = assay: Test Example 1: foliage treatment, upland pot test; format: in vivo, Oryza sativa L.; settings: crop, active ingredient 1000 g/ha, observed 18th to 23rd day, 0 = non-treated, 100 = complete kill
Summary of the method: as §1

green foxtail [14] = assay: Test Example 2: soil surface treatment, upland pot test; format: in vivo, Setaria viridis L.; settings: active ingredient 1000 g/ha, observed 20th to 28th day
Summary of the method: as §2

japanese ribbon wapato = assay: Test Example 3: paddy pot test, application under submerged conditions; format: in vivo, Sagittaria pygniaea; settings: active ingredient 500 g/ha; submerged application at primary leaf stage; visually observed 14 days after application; 0 = non-treated, 100 = complete kill
Summary of the method: as §3

crabgrass [15] = assay: Test Example 1: foliage treatment, upland pot test; format: in vivo, Digitaria sanguinalis L.; settings: active ingredient 1000 g/ha, observed 18th to 23rd day, 0 = non-treated, 100 = complete kill
prickly sida [16] = assay: Test Example 1: foliage treatment, upland pot test; format: in vivo, Sida spinosa L.; settings: active ingredient 1000 g/ha, observed 18th to 23rd day, 0 = non-treated, 100 = complete kill
velvetleaf [17] = assay: Test Example 1: foliage treatment, upland pot test; format: in vivo, Abutilon theophrasti MEDIC.; settings: active ingredient 1000 g/ha, observed 18th to 23rd day, 0 = non-treated, 100 = complete kill
soybean [18] = assay: Test Example 2: soil surface treatment, upland pot test; format: in vivo, Glycine max Merr.; settings: active ingredient 1000 g/ha, observed 20th to 28th day
Summary of the method: as §2

japanese bulrush = assay: Test Example 3: paddy pot test, application under submerged conditions; format: in vivo, Scirpus juncoides; settings: active ingredient 500 g/ha; submerged application at 0.5 leaf stage; visually observed 14 days after application; 0 = non-treated, 100 = complete kill
Summary of the method: as §3

corn [19] = assay: Test Example 1: foliage treatment, upland pot test; format: in vivo, Zea mays L.; settings: crop, active ingredient 1000 g/ha, observed 18th to 23rd day, 0 = non-treated, 100 = complete kill
Summary of the method: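 In this upland pot foliage test, corn plants at 2.1 to 3.2 leaf stages were sprayed by a small size sprayer. The spray was a conventionally formulated wettable powder or emulsifiable concentrate weighed to a set active ingredient amount, diluted in water at 500 L/ha, plus 0.1% (v/v) agricultural spreader. Visual assessment on days 18 to 23 gave growth controlling degree (%), where 0 equals untreated and 100 means complete kill.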

redroot pigweed [20] = assay: Test Example 1: foliage treatment, upland pot test; format: in vivo, Amaranthus retroflexus L.; settings: active ingredient 1000 g/ha, observed 18th to 23rd day, 0 = non-treated, 100 = complete kill
rice (var. Nihonbare) = assay: Test Example 3: paddy pot test, transplanted rice; format: in vivo, Oryza sativa L.; settings: active ingredient 500 g/ha, applied 4th day after transplantation, visually observed 21st day after application, 0 = non-treated, 100 = complete kill
Summary of the method: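 Rice (2-leaf stage) was transplanted 3 cm deep into puddled, leveled paddy soil under 3–4 cm flooding. On day 4 after transplanting, diluted wettable powder or emulsifiable concentrate was pipetted onto the water at a predetermined active-ingredient dose. Growth control (0 = untreated, 100 = complete kill) was scored visually 21 days later.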

wheat [21] = assay: Test Example 2: soil surface treatment, upland pot test; format: in vivo, Triticum spp.; settings: active ingredient 1000 g/ha, observed 20th to 28th day
Summary of the method: as §2

SMILES	Growth controlling degree (%) Soybean (soybean [1])	Growth controlling degree (%) Tall morningglory (tall morningglory)	Growth controlling degree (%) Green foxtail (green foxtail [6])	Growth controlling degree (%) wheat (wheat [10])	Growth controlling degree (%) Barnyardgrass (barnyardgrass [11])	Growth controlling degree (%) Rice (rice [13])	Growth controlling degree (%) Crabgrass (crabgrass [15])	Growth controlling degree (%) Prickly sida (prickly sida [16])	Growth controlling degree (%) Velvetleaf (velvetleaf [17])	Growth controlling degree (%) Corn (corn [19])	Growth controlling degree (%) Redroot pigweed (redroot pigweed [20])	other results
CC(C)C(c1cnccc1C(F)(F)F)N(C)C(=O)Cc1ccc(Br)cc1 (stereo not drawn) [I-10]	90%	95%	90%	30%	90%	30%	95%	90%	95%	60%	90%	Growth controlling degree (%) Crabgrass (crabgrass [2]): 100%; Growth controlling degree (%) Prickly sida (prickly sida [3]): 60%; Growth controlling degree (%) Velvetleaf (velvetleaf [4]): 60%; Growth controlling degree (%) Barnyardgrass (barnyardgrass [5]): 100%; Growth controlling degree (%) Redroot pigweed (redroot pigweed [7]): 60%; Growth controlling degree (%) Corn (corn [8]): 10%; Growth controlling degree (%) Barnyardgrass (barnyardgrass [9]): 100%; Growth controlling degree (%) Rice (rice [12]): 30%; Growth controlling degree (%) Green foxtail (green foxtail [14]): 100%; Growth controlling degree (%) Japanese ribbon wapato (japanese ribbon wapato): 10%; Growth controlling degree (%) Soyabean (soybean [18]): 30%; Growth controlling degree (%) Japanese bulrush (japanese bulrush): 98%; Growth controlling degree (%) Rice (rice (var. Nihonbare)): 10%; Growth controlling degree (%) wheat (wheat [21]): 20%
CC(C)COC(=O)N(C)C(c1cnccc1C(F)(F)F)c1cccc2ccccc12 (stereo not drawn) [I-52]	0%	95%	20%	10%	50%	10%	80%	70%	95%	60%	60%	

From patent US20050239656A1, “Pyridine compounds or salts thereof and herbicides containing the same” (priority 2002, published 2005)
